Laboratory results taken from US20070128217A1 (priority 2003, published 2007).

How the values were obtained:
[1] = system: rabbit serum obtained by immunizing a rabbit with the SARS-CoV strain Frankfurt 1; format: binding; parameters: Binding of a rabbit serum to linear peptides / Binding of a rabbit serum to looped peptides / Rabbit serum linear peptides / Rabbit serum looped peptides / Binding of a rabbit serum to linear peptides of protein N of SARS-CoV Urbani (Rabbit serum linear peptides) / Binding of a rabbit serum to looped/cyclic peptides of protein N of SARS-CoV Urbani (Rabbit serum looped peptides): unit not given here
[2] = system: recombinant human anti-SARS-CoV antibody 03-018; format: binding; parameters: Binding of antibody 03-018 to linear peptides of the N protein of SARS-CoV Urbani / Binding of antibody 03-018 to looped/cyclic peptides of the N protein of SARS-CoV Urbani: unit not given here
[3] = system: control sera (pooled serum of ten healthy LUMC hospital workers; commercial negative donor pooled serum from the Dutch bloodbank); format: binding, human; parameters: Binding of Control serum LUMC to linear peptides / Binding of Control serum Blood-bank to linear peptides / Binding of Control serum LUMC to looped peptides / Binding of Control Serum Blood-Bank to Looped peptides / Binding of Control serum LUMC to linear peptides of the protein M of SARS-CoV Urbani / Binding of Control serum Blood-bank to linear peptides of the protein M of SARS-CoV Urbani / Binding of Control serum LUMC to looped peptides of the protein M of SARS-CoV Urbani / Binding of Control Serum Blood-Bank to Looped peptides of the protein M of SARS-CoV Urbani: unit not given here
[4] = system: antibodies in sera from SARS patients (sera 1a, 1b, 2, 6, 37, 62, London, SARS-yellow, SARS-green); format: binding, human; parameters: Binding of serum 6 to linear peptides of protein X1 of SARS-CoV Urbani / Binding of serum 37 to linear peptides of protein X1 of SARS-CoV Urbani / Binding of serum 6 to looped/cyclic peptide (PEPSCAN-ELISA) / Binding of serum 37 to looped/cyclic peptide (PEPSCAN-ELISA) / Binding of serum 37 to looped/cyclic peptides of protein X1 of SARS-CoV Urbani / Binding of serum 6 to linear peptides of protein X2 / Binding of serum 37 to linear peptides of protein X2 / Binding of serum 37 to looped/cyclic peptides of protein X2 of SARS-CoV Urbani / Binding of serum 6 to linear peptides of protein M of SARS-CoV Urbani / Binding of serum 37 to linear peptides of protein M of SARS-CoV Urbani / Binding of serum 6 to looped/cyclic peptides of protein M of SARS-CoV Urbani / Binding of serum 37 to looped/cyclic peptides of protein M of SARS-CoV Urbani / Binding of serum 6 to linear peptides of protein X3 of SARS-CoV Urbani / Binding of serum 37 to linear peptides of protein X3 of SARS-CoV Urbani / Binding of serum 37 to looped/cyclic peptides of protein X3 of SARS-CoV Urbani / Binding of serum 6 to linear peptides of protein X4 of SARS-CoV Urbani / Binding of serum 37 to linear peptides of protein X4 of SARS-CoV Urbani / Binding of serum 37 to looped/cyclic peptides of protein X4 of SARS-CoV Urbani / Binding of serum 6 to linear peptides of protein X5 of SARS-CoV Urbani / Binding of serum 37 to linear peptides of protein X5 of SARS-CoV Urbani / Binding of serum 37 to looped/cyclic peptides of protein X5 of SARS-CoV Urbani / Binding of serum 6 to linear peptides of protein N of SARS-CoV Urbani / Binding of serum 37 to linear peptides of protein N of SARS-CoV Urbani / Binding of serum 6 to linear peptide (PEPSCAN-ELISA) / Binding of serum 1a to looped/cyclic peptides of protein N of SARS-CoV Urbani / Binding of serum 1b to looped/cyclic peptides of protein N of SARS-CoV Urbani / Binding of serum 2 to looped/cyclic peptides of protein N of SARS-CoV Urbani / Binding of serum 6 to looped/cyclic peptides of protein N of SARS-CoV Urbani / Binding of serum 37 to looped/cyclic peptides of protein N of SARS-CoV Urbani / Binding of serum 62 to looped/cyclic peptides of protein N of SARS-CoV Urbani / Binding of serum London to looped/cyclic peptides of protein N of SARS-CoV Urbani / Binding of serum SARS-green to looped/cyclic peptides of protein N of SARS-CoV Urbani: unit not given here

Row | Sequence | Binding of a rabbit serum to linear peptides of protein N of SARS-CoV Urbani (Rabbit serum linear peptides) [1] | Binding of a rabbit serum to looped/cyclic peptides of protein N of SARS-CoV Urbani (Rabbit serum looped peptides) [1] | Binding of antibody 03-018 to linear peptides of the N protein of SARS-CoV Urbani [2] | Binding of antibody 03-018 to looped/cyclic peptides of the N protein of SARS-CoV Urbani [2] | Binding of serum 1a to linear peptides of protein N of SARS-CoV Urbani [4] | Binding of serum 1a to looped/cyclic peptides of protein N of SARS-CoV Urbani [4] | Binding of serum 1b to linear peptides of protein N of SARS-CoV Urbani [4] | Binding of serum 1b to looped/cyclic peptides of protein N of SARS-CoV Urbani [4] | Binding of serum 2 to linear peptides of protein N of SARS-CoV Urbani [4] | Binding of serum 2 to looped/cyclic peptides of protein N of SARS-CoV Urbani [4] | Binding of serum 6 to linear peptides of protein N of SARS-CoV Urbani [4] | Binding of serum 6 to looped/cyclic peptides of protein N of SARS-CoV Urbani [4] | Binding of serum 37 to linear peptides of protein N of SARS-CoV Urbani [4] | Binding of serum 37 to looped/cyclic peptides of protein N of SARS-CoV Urbani [4] | Binding of serum 62 to linear peptides of protein N of SARS-CoV Urbani [4] | Binding of serum 62 to looped/cyclic peptides of protein N of SARS-CoV Urbani [4] | Binding of serum London to linear peptides of protein N of SARS-CoV Urbani [4] | Binding of serum London to looped/cyclic peptides of protein N of SARS-CoV Urbani [4] | Binding of serum SARS-green to linear peptides of protein N of SARS-CoV Urbani [4] | Binding of serum SARS-green to looped/cyclic peptides of protein N of SARS-CoV Urbani [4] | further results
1 | KKTDEAQPLPQRQKK | 0.2 | 0.0 | 0.1 | 0.2 | 0.2 | 0.2 | 0.1 | 0.1 | 0.3 | 0.1 | 0.4 | 0.0 | 0.7 | 0.4 | 0.6 | 0.2 | 1.7 | 0.2 | 0.2 | 0.0 | Control Serum Blood-Bank Looped peptides [3]: 0.4; Control serum Blood-bank linear peptides [3]: 0.7; Control serum LUMC linear peptides [3]: 0.7; Control serum LUMC looped peptides [3]: 0.3; Binding of serum SARS-yellow to linear peptides of protein N of SARS-CoV Urbani [4]: 1.1; Binding of serum SARS-yellow to looped/cyclic peptides of protein N of SARS-CoV Urbani [4]: 0.0
2 | KMKELSPRWYFYYLG | 0.1 | 0.6 | 0.1 | 0.2 | 0.2 | 0.3 | 0.1 | 0.2 | 0.1 | 0.4 | 0.1 | 0.3 | 0.5 | 0.7 | 0.5 | 0.7 | 0.4 | 0.4 | 0.1 | 0.4 | Binding of Control Serum Blood-Bank to Looped peptides [3]: 0.8; Binding of Control serum Blood-bank to linear peptides [3]: 0.6; Binding of Control serum LUMC to linear peptides [3]: 0.5; Binding of Control serum LUMC to looped peptides [3]: 0.6; Binding of serum SARS-yellow to linear peptides of protein N of SARS-CoV Urbani [4]: 0.6; Binding of serum SARS-yellow to looped/cyclic peptides of protein N of SARS-CoV Urbani [4]: 0.6
3 | KQRRPQGLPNNTASW | 0.1 | 0.6 | 0.1 | 0.2 | 0.2 | 0.4 | 0.1 | 0.2 | 0.2 | 0.4 | 0.1 | 0.4 | 0.7 | 0.6 | 0.6 | 0.5 | 0.4 | 0.6 | 0.3 | 0.3 | Binding of Control Serum Blood-Bank to Looped peptides [3]: 0.6; Binding of Control serum Blood-bank to linear peptides [3]: 0.7; Binding of Control serum LUMC to linear peptides [3]: 0.5; Binding of Control serum LUMC to looped peptides [3]: 0.6; Binding of serum SARS-yellow to linear peptides of protein N of SARS-CoV Urbani [4]: 0.5; Binding of serum SARS-yellow to looped/cyclic peptides of protein N of SARS-CoV Urbani [4]: 0.7
4 | KTDEAQPLPQRQKKQ | 0.0 | 0.0 | 0.1 | 0.2 | 0.3 | 0.3 | 0.2 | 0.1 | 0.3 | 0.3 | 0.3 | 0.6 | 0.9 | 0.3 | 0.9 | 0.1 | 1.4 | 0.7 | 0.6 | 0.2 | Control Serum Blood-Bank Looped peptides [3]: 0.4; Control serum Blood-bank linear peptides [3]: 0.7; Control serum LUMC linear peptides [3]: 0.9; Control serum LUMC looped peptides [3]: 0.4; Binding of serum SARS-yellow to linear peptides of protein N of SARS-CoV Urbani [4]: 1.5; Binding of serum SARS-yellow to looped/cyclic peptides of protein N of SARS-CoV Urbani [4]: 0.5
